Measurements published in ChEMBL document CHEMBL3046102, “Antibacterial and antifungal activities of some trimethoprim salts” (2012).
Values after ≈ are worked out from the molar mass of the structure shown.

Columns and labels:
Enterococcus faecalis = assay: microbe, parasite or virus in culture; type: functional; settings: ATCC 29212
Description: Antibacterial activity against Enterococcus faecalis ATCC 29212 after 24 to 48 hr by CLSI broth microdilution method

Staphylococcus aureus = assay: microbe, parasite or virus in culture; type: functional; settings: ATCC 25923
Description: Antibacterial activity against Staphylococcus aureus ATCC 25923 after 24 to 48 hr by CLSI broth microdilution method

Klebsiella pneumoniae = assay: microbe, parasite or virus in culture; type: functional; settings: ATCC 700603
Description: Antibacterial activity against Klebsiella pneumoniae ATCC 700603 after 24 to 48 hr by CLSI broth microdilution method

Salmonella typhimurium = assay: microbe, parasite or virus in culture; type: functional, Salmonella enterica subsp. enterica serovar Typhimurium; settings: Salmonella enterica, NRLL B-4420
Description: Antibacterial activity against Salmonella enterica subsp. enterica serovar Typhimurium NRRL B-4420 after 24 to 48 hr by CLSI broth microdilution method

Proteus vulgaris = assay: microbe, parasite or virus in culture; type: functional; settings: NRLL B-123
Description: Antibacterial activity against Proteus vulgaris NRLL B-123 after 24 to 48 hr by CLSI broth microdilution method

Pseudomonas aeruginosa = assay: microbe, parasite or virus in culture; type: functional; settings: ATCC 27853
Description: Antibacterial activity against Pseudomonas aeruginosa ATCC 27853 after 24 to 48 hr by CLSI broth microdilution method

Candida parapsilosis = assay: microbe, parasite or virus in culture; type: functional; settings: Lodderomyces parapsilosis, NRRL Y-12969
Description: Antifungal activity against Candida parapsilosis NRRL Y-12969 after 24 to 48 hr by CLSI broth microdilution method

[Candida] zeylanoides = microbe, parasite or virus in culture; type: functional; settings: Dujonia zeylanoides, NRRL Y-1774
Description: Antifungal activity against Candida zeylanoides NRRL Y-1774 after 24 to 48 hr by CLSI broth microdilution method

Pichia kudriavzevii = assay: microbe, parasite or virus in culture; type: functional; settings: NRRL Y-7179
Description: Antifungal activity against Pichia kudriavzevii NRRL Y-7179 after 24 to 48 hr by CLSI broth microdilution method

Candida tropicalis = assay: microbe, parasite or virus in culture; type: functional; settings: NRRL Y-12968
Description: Antifungal activity against Candida tropicalis NRRL Y-12968 after 24 to 48 hr by CLSI broth microdilution method

Cyberlindnera jadinii = assay: Antifungal activity against Cyberlindnera jadinii NRRL Y-900 after 24 to 48 hr by CLSI broth microdilution method; type: functional; settings: Williopsis jadinii
Nakaseomyces glabratus [1] = assay: Antifungal activity against Candida glabrata clinical isolate after 24 to 48 hr by CLSI broth microdilution method; type: functional
Nakaseomyces glabratus [2] = assay: microbe, parasite or virus in culture; type: functional; settings: ATCC 36583
Description: Antifungal activity against Candida glabrata ATCC 36583 after 24 to 48 hr by CLSI broth microdilution method

Candida albicans [3] = assay: Antifungal activity against Candida albicans clinical isolate after 24 to 48 hr by CLSI broth microdilution method; type: functional
Candida albicans [4] = assay: microbe, parasite or virus in culture; type: functional; settings: NRRL Y-27077
Description: Antifungal activity against Candida albicans NRRL Y-27077 after 24 to 48 hr by CLSI broth microdilution method

Escherichia coli = assay: microbe, parasite or virus in culture; type: functional; settings: ATCC 35218
Description: Antibacterial activity against Escherichia coli ATCC 35218 after 24 to 48 hr by CLSI broth microdilution method

O=C(N[C@H](CO)[C@H](O)c1ccc([N+](=O)[O-])cc1)C(Cl)Cl [CHLORAMPHENICOL]
MIC (Enterococcus faecalis): 12.5 µg/mL (≈ 38.7 µM) | MIC (Staphylococcus aureus): 50 µg/mL (≈ 155 µM) | MIC (Klebsiella pneumoniae): 12.5 µg/mL (≈ 38.7 µM) | MIC (Salmonella typhimurium): 12.5 µg/mL (≈ 38.7 µM) | MIC (Proteus vulgaris): 50 µg/mL (≈ 155 µM) | MIC (Pseudomonas aeruginosa): 50 µg/mL (≈ 155 µM)

CC(=O)N1CCN(c2ccc(OCC3COC(Cn4ccnc4)(c4ccc(Cl)cc4Cl)O3)cc2)CC1 (configuration not stated) [KETOCONAZOLE]
MIC (Candida parapsilosis): 1.56 µg/mL (≈ 2.94 µM) | MIC ([Candida] zeylanoides): 25 µg/mL (≈ 47 µM) | MIC (Pichia kudriavzevii): 25 µg/mL (≈ 47 µM) | MIC (Candida tropicalis): 12.5 µg/mL (≈ 23.5 µM) | MIC (Cyberlindnera jadinii): 12.5 µg/mL (≈ 23.5 µM) | MIC (Nakaseomyces glabratus [1]): 3.12 µg/mL (≈ 5.88 µM) | MIC (Nakaseomyces glabratus [2]): 25 µg/mL (≈ 47 µM) | MIC (Candida albicans [3]): 3.12 µg/mL (≈ 5.88 µM) | MIC (Candida albicans [4]): 12.5 µg/mL (≈ 23.5 µM)

COc1cc(Cc2cnc(N)nc2N)cc(OC)c1OC.O=C(O)/C=C\C(=O)O [TRIMETHOPRIM MALEIC ACID SALT]
MIC (Nakaseomyces glabratus [1]): 50 µg/mL | MIC (Nakaseomyces glabratus [2]): 50 µg/mL | MIC (Candida albicans [4]): 50 µg/mL | MIC (Enterococcus faecalis): 50 µg/mL | MIC (Klebsiella pneumoniae): 50 µg/mL | MIC (Salmonella typhimurium): 50 µg/mL | MIC (Proteus vulgaris): 50 µg/mL | MIC (Pseudomonas aeruginosa): 50 µg/mL | MIC (Escherichia coli): 50 µg/mL

COc1cc(Cc2cnc(N)nc2N)cc(OC)c1OC.O.O.O=C(O)C(=O)O [TRIMETHOPRIM OXALIC ACID SALT DIHYDRATE]
MIC (Nakaseomyces glabratus [1]): 25 µg/mL | MIC (Nakaseomyces glabratus [2]): 50 µg/mL | MIC (Candida albicans [4]): 50 µg/mL | MIC (Enterococcus faecalis): 50 µg/mL | MIC (Klebsiella pneumoniae): 50 µg/mL | MIC (Salmonella typhimurium): 50 µg/mL | MIC (Proteus vulgaris): 50 µg/mL | MIC (Pseudomonas aeruginosa): 50 µg/mL | MIC (Escherichia coli): 50 µg/mL

COc1cc(Cc2cnc(N)nc2N)cc(OC)c1OC [TRIMETHOPRIM]
MIC (Nakaseomyces glabratus [1]): 25 µg/mL (≈ 86.1 µM) | MIC (Nakaseomyces glabratus [2]): 50 µg/mL (≈ 172 µM) | MIC (Candida albicans [4]): 50 µg/mL (≈ 172 µM) | MIC (Enterococcus faecalis): 50 µg/mL (≈ 172 µM) | MIC (Klebsiella pneumoniae): 50 µg/mL (≈ 172 µM) | MIC (Salmonella typhimurium): 50 µg/mL (≈ 172 µM) | MIC (Proteus vulgaris): 50 µg/mL (≈ 172 µM) | MIC (Pseudomonas aeruginosa): 50 µg/mL (≈ 172 µM) | MIC (Escherichia coli): 50 µg/mL (≈ 172 µM)
